Consider three compounds from patent US11518783B2, “Peptides having tetrahedral mimicking groups as inhibitors of rhomboid proteases” (priority 2016, dated 2022).

Peptide text beside a SMILES is read from it. * marks the point of attachment. CHO = C-terminal aldehyde in place of the boronate, O=C*; boroAla = C[C@H](N*)B(O)O

As a reminder, the viability is a per cent measure of how many cells are alive, often set against a control.

One data set relates to PfROM1. The data set is described as follows: Heterologous cell-based rhomboid cleavage assay, PfROM1. The note with it: highest RiBn concentration, transfection-based assay. Set-up: species or system P. falciparum. An excerpt: (§1) FIG. 4A-F illustrates RiBn is a non-toxic, selective inhibitor of only PfROM4. A. Chemical structure of one embodiment of RiBn, a peptide of 10 aa with boronate warhead (SEQ ID NO: 3). Ac denotes an N-terminal acetyl moiety, while the C-terminal boronate warhead is on the right. B. Western blot analysis of EBA175 and AMA1 cleavage by PfROM4 in a heterologous cleavage assay. Co-transfected HEK293 cells were conditioned in the presence of absence of the indicated concentrations of RiBn. Cells transfected with AMA1 were conditioned in the presence or absence of the metalloprotease inhibitor (WI) BB-94 to reduce background cleavage by endogenous cellular proteases. N-terminal cleavage products were released into media (anti-GFP, top panels). Lysates were probed for expression of substrate (anti-GFP, middle panel) and enzyme (anti-HA, bottom panel). Quantification of PfROM4 inhibition by RiBn (right panel, mean±s.e.m.). […] Inhibition was analyzed in three independent biological experiments. […] Flow cytometry analysis (calcein AM fluorescence) of the same cells (right panels). […] For data in D and E, toxicity analyses were conducted in three independent biological experiments (once for each assay readout). […]
(§2) Cleavage of substrates and the activity of enzymes was determined in a slightly modified heterologous cleavage assay. […] Two-color quantitative westerns were converted to greyscale.

A further data set deals with human erythrocytes. The note with it: erythrocytes cultured ~18 hours with RiBn.
A further data set has as its target T1, human rhomboid enzyme (Homo sapiens, UniProt Q9NX52).
T1 construct: expressed in transfected cells; host or cells: HEK293T (ATCC CRL-11268), pcDNA3.1
T1 sequence (Q9NX52 1-303): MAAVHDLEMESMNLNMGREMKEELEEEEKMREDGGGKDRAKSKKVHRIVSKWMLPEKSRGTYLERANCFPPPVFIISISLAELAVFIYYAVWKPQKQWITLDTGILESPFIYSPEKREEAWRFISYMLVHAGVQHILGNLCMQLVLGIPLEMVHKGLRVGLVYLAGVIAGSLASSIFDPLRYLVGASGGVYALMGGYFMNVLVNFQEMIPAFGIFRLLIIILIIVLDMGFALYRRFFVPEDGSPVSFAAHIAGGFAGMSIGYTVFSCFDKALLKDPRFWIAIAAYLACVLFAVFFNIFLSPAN
In words: Heterologous cell-based rhomboid cleavage assay, human rhomboid enzyme. To be noted: transfection-based assay, analyzed in parallel.
Source text: as §1, §2

Another data set concerns P. falciparum merozoites. The data set is described as follows: P. falciparum invasion assay with synchronized schizont-stage parasites. Format: cell-based. The method, then:
(§3) Inhibitor potency was verified in three independent biological experiments. […] Quantification was conducted once. C.
(§4) Asexual P. falciparum 3d7 parasites (kind gift of Dr David Sullivan, Johns Hopkins School of Public Health) were cultured in human erythrocytes (O-donor, purchased from Interstate Blood Bank, Inc.) under standard conditions. Sorbitol synchronization was performed ˜1/week or as needed for experiments. For invasion assays, schizont-stage parasites were magnetically purified as previously described (MACS Miltenyi Biotec) and incubated at the appropriate parasitemia (0.2% for dose-response curves) in a 96-well plate in the presence or absence of the peptide-warhead inhibitors at 1.5% hematocrit. Flow cytometry analysis for absolute parasitemia determination and growth characterization was performed by removing a small volume of culture, washing cells in 1×PBS, resuspending them in 1×PBS containing 0.1 μg/mL acridine orange and monitoring FL1/FL3 fluorescence on a FACSCalibur instrument (BD Biosciences). Methanol-fixed, acridine orange stained parasitized erythrocytes were imaged on an inverted fluorescence microscope (Nikon) with bandpass filters. Images were overlaid in Photoshop CC (Adobe). All flow cytometry data were analyzed in FlowJo.

In data set [1] the test system is other five rhomboid proteases known to reside on the cell surface. The data set is described as follows: Heterologous cell-based rhomboid cleavage assay, other cell surface rhomboid enzymes and their substrates.
Source text: as §1, §2

For data set [2], the system named is HEK293 cells. The data set is described as follows: Cell cycle analysis of HEK293 cells by flow cytometry (propidium iodine). It is filed as cell-based, human. To be noted: 24 hours. On the technique in general: A flow cytometer gives signals particle by particle.
The test system of data set [3] is HEK293 cells. In words: LIVE/DEAD viability of RiBn-treated HEK293 cells (fluorescence microscopy and flow cytometry). Format: cell-based, human. To be noted: highest concentrations.
Source text: as §1, with “Lysates were probed for expression of substrate (anti-GFP, middle panel) and enzyme (anti-HA, bottom panel).” left out
(§5) Cell viability of RiBn-treated HEK293 cells was determined with a LIVE/DEAD Viability/Cytotoxicity Kit (Molecular Probes). Calcein AM and ethidium homodimer-1 stained cells were imaged on an inverted fluorescence microscope (Nikon) with the appropriate bandpass filters. […]

Assay in data set [4]: as above
To be noted: human, highest RiBn dose, ~24 hours, calcein AM, read-out: cell viability by flow cytometry. It is filed as cell-based, human.
Source text: as §1, with “Lysates were probed for expression of substrate (anti-GFP, middle panel) and enzyme (anti-HA, bottom panel).” left out
as §5

For another data set, the system named is PfROM4. The data set is described as follows: Heterologous cell-based rhomboid cleavage assay in co-transfected HEK293 cells, EBA175 cleavage by PfROM4. On the set-up: species or system P. falciparum. The note with it: western of conditioned media.
Source text: as §1, §2

Data set [5] relates to P. falciparum 3d7 parasites. In words: P. falciparum growth (parasitemia) on human erythrocytes, flow cytometry with acridine orange. Format: cell-based. The note with it: for inhibition of parasite growth: P. falciparum on human red blood cells. The procedure:
as §3
FIG. 6A-6C illustrates RiBn cures blood stage cultures of malaria by iteratively inhibiting parasite invasion and retarding growth. A. Blood stage cultures containing 1% well synchronized schizont stage parasitized erythrocytes were cultured in the presence or absence of 0.3 mM RiB, as indicated, and analyzed at various time points via flow cytometry (acridine orange, top panels) and fluorescent microscopy (acridine orange staining, bottom panels). After 18 hours of culturing, RiBn was washed out of one replicate of the RiBn treated cultures and monitored as above, as indicated. […] C. Quantification of absolute parasitemia at various time points in blood stage parasite cultures treated with the indicated concentrations of RiBn. In a-c, growth defect was confirmed in three independent biological experiments, while the parallel washout was conducted once and is shown.
as §4

In another data set the target is GlpG (Escherichia coli, UniProt P09391). To be noted: GlpG in living E. coli cells, side-by-side comparison.
GlpG, sequence (P09391 whole entry): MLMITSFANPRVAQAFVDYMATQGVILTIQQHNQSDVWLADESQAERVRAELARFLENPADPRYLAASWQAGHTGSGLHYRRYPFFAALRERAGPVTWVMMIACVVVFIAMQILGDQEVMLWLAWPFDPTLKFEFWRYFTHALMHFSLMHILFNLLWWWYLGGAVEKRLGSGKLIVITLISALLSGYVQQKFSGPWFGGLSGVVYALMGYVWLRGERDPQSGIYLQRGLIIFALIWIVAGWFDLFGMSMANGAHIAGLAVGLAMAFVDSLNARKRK

Procedure for GlpG: F. Inhibition of endogenous GlpG activity in living E. coli cells grown in liquid culture. Δ is the negative control in which GlpG was deleted from the E. coli genome. Peptide inhibitors were added at the indicated concentrations directly to growing cultures. Shown are quantitative infrared anti-flag westerns, with the top band being the TatA-Flag uncut substrate, and the lower band being the cut product. Quantification of cleavage was used to calculate the EC50 concentrations (graph on right, mean±s.e.m.). Inhibition was analyzed in three independent biological experiments, each with a full spectrum of concentrations per compound.
Dose-response curves were analyzed in the R environment. Curve fitting and graphing was performed with the DRC package using data appropriate models. EC50 values are depicted along with the standard error of the fit.

Regarding `CSCC[C@H](NC(=O)[C@H](CO)NC(=O)[C@H](CCCNC(=N)N)NC(=O)[C@H](Cc1ccccc1)NC(=O)[C@H](CCCNC(=N)N)NC(=O)[C@H](CCCCN)NC(C)=O)C(=O)N[C@@H](CCC(N)=O)C(=O)N[C@@H](Cc1ccc(O)cc1)C(=O)N[C@@H](CO)C(=O)N[C@@H](C)B(O)O` [RiBn] (Ac-KRFRSMQYS-boroAla), in the data set on PfROM1, the “inhibition of PfROM1” value is on record as “completely unaffected”. Also, the “host cell (red blood cell) viability” value with human erythrocytes is “not affecting host cell viability”. Also, the “inhibition of the human rhomboid enzyme” value at human rhomboid enzyme was “no inhibitory effect”. In the data set on P. falciparum merozoites (first round of infection, flow cytometry), the “maximal inhibition of merozoite invasion” value is about 50%. The “inhibition of merozoite invasion of red blood cells” value in the data set on P. falciparum merozoites (synchronized cultures, ~24 hours) is “dose-dependent inhibition of merozoite invasion”. In addition, the “effect on cell viability or function (translation, glycosylation, trafficking, secretion of substrates)” value in [1] (transfected HEK293 cells, highest RiBn concentrations) is listed as “no apparent effect on cell viability or function”. Further, the “inhibition of the other five cell surface rhomboid proteases” value in data set [1] (transfection-based assay, analyzed in parallel) is listed as “no inhibitory effect”. In the data set on HEK293 cells [2], the “adherence, growth, or cell cycle distribution of treated versus untreated cells” value is listed as “no apparent change”. Also, the “cell viability in fluorescence-based live/dead cell assay” value in the data set with HEK293 cells [3] is given as “no change in cell viability”. Besides, the viability in data set [4] is 92.4%. In addition, the “inhibition of EBA175 processing by PfROM4” value in the data set on PfROM4 is listed as “inhibited EBA175 processing by PfROM4 in a dose-dependent manner”. Further, the “inhibition of parasite growth” value in [5] was “dose-dependent inhibition of parasite growth”. For the same compound, the “effect on other parasite stages including egress” value in data set [5] (delayed parasites through lifecycle stages) is on record as “minimally or not affected”. Also, the “growth of parasites that invaded in presence of RiBn” value in [5] (subsequent time points, versus vehicle-treated controls) is listed as “grew considerably slower than vehicle-treated controls”. In data set [5] (washout after 18 hours, 0.3 mM), the “effect of washing out RiBn after the first round of invasion” value is recorded as “rescued parasite growth”.

Take Ac-VRMA-B(OH)2: on GlpG, the “increase in potency relative to the aldehyde of the same tetrapeptide” value is over 100 fold and the “increase in potency relative to the chloromethylketone of the same tetrapeptide” value is given as over 400 fold.

As for “peptide-aldehyde: same peptide sequence as RiBn but replacing the boronate with an aldehyde moiety (Ac-KRFRSMQYSA-{CHO}; also: aldehyde moiety replacing the boronate, place not given here) [reference compound]”, the “inhibition of EBA175 processing by PfROM4” value with PfROM4 is recorded as “completely abolished PfROM4 inhibition”. In addition, in [5], the “inhibition of parasite growth” value is “abolished inhibition”.
